Assay results reported in ChEMBL document CHEMBL5325426, “Structure-based discovery of potent USP28 inhibitors derived from Vismodegib” (Eur J Med Chem, 2023).

Tests used:
[1] = molecular target: T1, Ubiquitin carboxyl-terminal hydrolase 28 (Homo sapiens, UniProt Q96RU2); test: Inhibition of USP28 (149 to 703 residues) (unknown origin) expressed in Escherichia coli BL21 (DE3) using Ub-AMC as substrate by fluorescence based analysis
T1 sequence (Q96RU2 whole entry): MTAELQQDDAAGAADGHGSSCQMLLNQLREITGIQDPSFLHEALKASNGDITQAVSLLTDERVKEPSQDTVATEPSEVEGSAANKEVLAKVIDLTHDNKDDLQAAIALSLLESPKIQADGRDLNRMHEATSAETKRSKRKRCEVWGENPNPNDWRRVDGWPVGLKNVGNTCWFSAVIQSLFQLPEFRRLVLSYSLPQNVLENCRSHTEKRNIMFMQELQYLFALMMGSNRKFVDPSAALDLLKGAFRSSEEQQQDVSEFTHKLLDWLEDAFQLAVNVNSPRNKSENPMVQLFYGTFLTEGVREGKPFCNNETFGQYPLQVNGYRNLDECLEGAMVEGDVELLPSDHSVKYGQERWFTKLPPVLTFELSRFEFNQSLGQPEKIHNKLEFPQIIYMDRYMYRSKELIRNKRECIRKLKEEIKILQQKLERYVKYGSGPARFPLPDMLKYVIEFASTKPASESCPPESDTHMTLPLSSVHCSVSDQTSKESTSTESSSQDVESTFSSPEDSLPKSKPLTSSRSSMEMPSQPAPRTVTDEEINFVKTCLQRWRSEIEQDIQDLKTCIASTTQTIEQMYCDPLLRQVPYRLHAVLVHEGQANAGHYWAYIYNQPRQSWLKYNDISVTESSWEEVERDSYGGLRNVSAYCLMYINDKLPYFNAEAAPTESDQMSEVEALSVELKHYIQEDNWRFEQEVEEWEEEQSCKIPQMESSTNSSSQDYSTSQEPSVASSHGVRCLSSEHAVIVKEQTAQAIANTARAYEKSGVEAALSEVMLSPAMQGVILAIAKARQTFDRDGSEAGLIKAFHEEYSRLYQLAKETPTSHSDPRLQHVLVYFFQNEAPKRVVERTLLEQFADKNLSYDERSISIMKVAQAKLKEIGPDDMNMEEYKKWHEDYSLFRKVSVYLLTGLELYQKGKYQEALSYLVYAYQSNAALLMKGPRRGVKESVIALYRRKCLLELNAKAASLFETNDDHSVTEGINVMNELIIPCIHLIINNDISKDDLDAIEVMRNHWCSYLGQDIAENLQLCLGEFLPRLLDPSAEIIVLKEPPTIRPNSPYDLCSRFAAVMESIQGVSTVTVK

[2] = tested on: HCT-116; test: Antiproliferative activity against human HCT-116 cells assessed as cell growth inhibition incubated for 3 days by SRB assay; type: functional, cell-based; settings: HCT-116, 72 h
[3] = tested on: LS174T; test: Antiproliferative activity against human LS174T cells assessed as cell growth inhibition incubated for 3 days by SRB assay; type: functional, cell-based; settings: 72 h
[4] = tested on: Calu-1; test: Antiproliferative activity against human Calu-1 cells assessed as cell growth inhibition incubated for 3 days by SRB assay; type: functional, cell-based; settings: Calu-1, 72 h
[5] = tested on: NCI-H226; test: Antiproliferative activity against human NCI-H226 cells assessed as cell growth inhibition incubated for 3 days by SRB assay; type: functional, cell-based; settings: NCI-H226, 72 h

| SMILES | IC50 [1] [µM] | also measured |
| --- | --- | --- |
| CS(=O)(=O)c1ccc(C(=O)Nc2ccc(Cl)c(-c3ccc(CN)cn3)c2)c(Cl)c1 | 2.13 |  |
| CS(=O)(=O)c1ccc(C(=O)Nc2ccc(Cl)c(-c3ccccc3N)c2)c(Cl)c1 | 8.58 |  |
| CS(=O)(=O)c1ccc(C(=O)Nc2cc(Cl)cc(-c3ccc(CN)cc3)c2)c(Cl)c1 | 1.13 |  |
| CS(=O)(=O)c1ccc(C(=O)Nc2ccc(Cl)c(-c3ccc(N4CCNCC4)cc3)c2)c(Cl)c1 | 4.24 |  |
| CN(C)c1ccc(-c2cc(NC(=O)c3ccc(S(C)(=O)=O)cc3Cl)ccc2Cl)cc1 | 2.82 |  |
| CS(=O)(=O)c1ccc(C(=O)Nc2ccc(Cl)c(-c3cccc(N)c3)c2)c(Cl)c1 | 11 |  |
| CS(=O)(=O)c1ccc(C(=O)Nc2ccc(Cl)c(-c3ccc(N)cc3)c2)c(Cl)c1 | 5.68 |  |
| CS(=O)(=O)c1ccc(C(=O)Nc2ccc(Cl)c(-c3ccc(CN)cc3)c2)c(Cl)c1 | 0.36 |  |
| Cc1ccc2c(N)c(C(=O)N[C@H]3CCc4cc(N5CC6CCC(C5)N6)ccc4C3)sc2n1 | 0.11 | IC50 [2]: 0.19 µM; IC50 [3]: 0.07 µM; IC50 [4]: 0.32 µM; IC50 [5]: 0.15 µM |
| CS(=O)(=O)c1ccc(C(=O)Nc2ccc(Cl)c(-c3cccc(CN)c3)c2)c(Cl)c1 | 0.15 |  |
| COc1ccc(-c2cc(NC(=O)c3ccc(S(C)(=O)=O)cc3Cl)ccc2Cl)cc1 | 2.94 |  |
